Experimental data: patent US9902703B2, “Somatostatin modulators and uses thereof” (Crinetics Pharmaceuticals, Inc., priority 2015, dated 2018)

What follows are compounds tested against T1, human somatostatin receptor subtype 2 (Homo sapiens, UniProt P30874) (assay: cAMP assay (functional assay for SSTR2 agonists)). Conditions: CHO cells expressing human SSTR2; intracellular cAMP with forskolin, HTRF; read-out: SSTR2a EC50.
T1 construct: expressed in transfected cells; host or cells: CHO (Chinese hamster ovary) cells, G-418 selected
Type: cell-based
Description: Functional Assay for SSTR2 Agonists
General overview: All five SSTR subtypes are Gi coupled G-protein coupled receptors (GPCRs) that lead to decreases in intracellular cyclic AMP (cAMP) when activated by an agonist. Therefore, measurement of intracellular cAMP levels can be used to assess whether compounds of the invention are agonists of SSTR subtypes (John Kelly, Troy Stevens, W. Joseph Thompson, and Roland Seifert, Current Protocols in Pharmacology, 2005, 2.2.1-2.2). One example of an intracellular cAMP assay is described below.
One day prior to the assay, 40,000 Chinese hamster ovary (CHO) cells expressing the human somatostatin receptor subtype 2 are plated in each well of a 96-well tissue culture plate in DM-MEM growth media (Gibco) with the following additives: 10% fetal bovine serum (Gibco), 100 U/mL penicillin (Gibco), 100 ug/mL streptomycin (Gibco), 10 mM HEPES (Gibco), 1.2 mM sodium hydroxide, 0.5 mg/mL G-418 (Gibco)). The cells are cultured overnight at 37° C., 5% CO2 and 95% humidity. On the day of the assay, the media is aspirated and the cells are washed with 1× Dulbecco's phosphate buffered saline (Gibco). Next, 5 μL of assay buffer (1× Earle's Balanced Salt Solution (Gibco), 5 mM MgCl2, 10 mM HEPES, 0.1% bovine serum albumin, 0.2 mM 3-Isobutyl-1-methylxanthine (IBMX, Biomol Research Labs)) and forskolin is added. Various dilutions of the compounds of the invention are prepared in assay buffer and 5 μL of the dilutions are added to the cultured cells and incubated for 15 minutes at 37° C. […] 10 μL of lysis buffer (HRTF cAMP kit, Cisbio) containing cAMP detection and visualization antibodies are added and the assay is allowed incubate for 1-24 hours at room temperature. The intracellular cAMP concentrations are then measured using a commercially available detection kit (for example, the cAMP HTRF kit, Cisbio). The measured intracellular cAMP concentrations are plotted vs. the concentration of the compounds of the invention and the EC50 of the compounds are calculated using standard methods.

T1 sequence (P30874 whole entry): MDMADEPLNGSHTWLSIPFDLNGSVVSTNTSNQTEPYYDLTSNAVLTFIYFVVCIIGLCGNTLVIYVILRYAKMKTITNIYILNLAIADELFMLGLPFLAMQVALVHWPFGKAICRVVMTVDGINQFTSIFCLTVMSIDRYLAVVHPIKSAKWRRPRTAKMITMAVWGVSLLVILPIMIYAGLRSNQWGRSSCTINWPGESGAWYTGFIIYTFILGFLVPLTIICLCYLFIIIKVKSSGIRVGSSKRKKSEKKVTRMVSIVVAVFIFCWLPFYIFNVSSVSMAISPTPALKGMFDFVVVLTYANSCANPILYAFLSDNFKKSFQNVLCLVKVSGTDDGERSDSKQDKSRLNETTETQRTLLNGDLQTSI

| SMILES | EC50 |
| --- | --- |
| Cc1cc(Cl)cc(N2C=Nc3ccc(-c4cc(O)cc(F)c4)cc3C2C(=O)N(C)C[C@@H]2CCCN2)c1 (stereo partly drawn) [Compound 1-50, 3-(3-chloro-5-methylphenyl)-6-(3-fluoro-5-hydroxyphenyl)-N-methyl-N-[(2S)-pyrrolidin-2-ylmethyl]-3,4-dihydroquinazoline-4-carboxamide] | < 100 nM |
| Cc1cc(C)cc(N2C=Nc3cc(C)c(-c4cccc(O)c4)cc3C2C(=O)NC[C@@H]2CCCN2)c1 (stereo partly drawn) [Compound 1-51, 3-(3,5-dimethylphenyl)-6-(3-hydroxyphenyl)-7-methyl-N-[(2S)-pyrrolidin-2-ylmethyl]-3,4-dihydroquinazoline-4-carboxamide] | 1000 to 10000 nM |
| COc1cc(F)cc(N2C=Nc3cc(C)c(-c4cc(O)ccc4F)cc3C2C(=O)N(C)C[C@@H]2CCCN2C)c1 (stereo partly drawn) [Compound 1-52, 6-(2-fluoro-5-hydroxyphenyl)-3-(3-fluoro-5-methoxyphenyl)-N,7-dimethyl-N-{[(2S)-1-methylpyrrolidin-2-yl]methyl}-3,4-dihydroquinazoline-4-carboxamide] | < 100 nM |
| Cc1cc(Cl)cc(N2C=Nc3cc(C)c(-c4cccc(CC(=O)O)c4)cc3C2C(=O)N(C)C[C@@H]2CCCN2)c1 (stereo partly drawn) [Compound 1-53, 2-{3-[3-(3-chloro-5-methylphenyl)-7-methyl-4-{methyl[(2S)-pyrrolidin-2-ylmethyl]carbamoyl}-3,4-dihydroquinazolin-6-yl]phenyl}acetic acid] | < 100 nM |
| Cc1cc(F)cc(N2C=Nc3cc(C)c(-c4cc(O)cc(C#N)c4)cc3C2C(=O)N(C)C[C@@H]2CCCN2)c1 (stereo partly drawn) [Compound 1-54, 6-(3-cyano-5-hydroxyphenyl)-3-(3-fluoro-5-methylphenyl)-N,7-dimethyl-N-[(2S)-pyrrolidin-2-ylmethyl]-3,4-dihydroquinazoline-4-carboxamide] | < 100 nM |
| Cc1cc(Cl)cc(N2C=Nc3cc(C)c(-c4cccc(O)c4)cc3C2C(=O)N(C)C[C@@H]2CC(F)(F)CN2)c1 (stereo partly drawn) [Compound 1-55, 3-(3-chloro-5-methylphenyl)-N-{[(2S)-4,4-difluoropyrrolidin-2-yl]methyl}-6-(3-hydroxyphenyl)-N,7-dimethyl-3,4-dihydroquinazoline-4-carboxamide] | < 100 nM |
| Cc1cc(Cl)cc(N2C=Nc3cc(C)c(-c4cccc(O)c4)cc3C2C(=O)N(C)C[C@@H]2C[C@@H](F)CN2)c1 (stereo partly drawn) [Compound 1-56, 3-(3-chloro-5-methylphenyl)-N-{[(2S,4R)-4-fluoropyrrolidin-2-yl]methyl}-6-(3-hydroxyphenyl)-N,7-dimethyl-3,4-dihydroquinazoline-4-carboxamide] | < 100 nM |
| Cc1cc(Cl)cc(N2C=Nc3cc(Cl)c(-c4cccc(O)c4)cc3C2C(=O)N(C)C[C@@H]2CCCN2)c1 (stereo partly drawn) [Compound 1-72, 7-chloro-3-(3-chloro-5-methylphenyl)-6-(3-hydroxyphenyl)-N-methyl-N-((S)-pyrrolidin-2-ylmethyl)-3,4-dihydroquinazoline-4-carboxamide] | < 100 nM |
| Cc1cc(Cl)cc(N2C=Nc3cc(C)c(-c4cnn(C)c4)cc3C2C(=O)N(C)C[C@@H]2CCCN2)c1 (stereo partly drawn) [Compound 2-1, 3-(3-chloro-5-methylphenyl)-N,7-dimethyl-6-(1-methyl-1H-pyrazol-4-yl)-N-[(2S)-pyrrolidin-2-ylmethyl]-3,4-dihydroquinazoline-4-carboxamide] | 100 to 1000 nM |
| Cc1cc(Cl)cc(N2C=Nc3cc(C)c(-c4cccnc4)cc3C2C(=O)N(C)C[C@@H]2CCCN2)c1 (stereo partly drawn) [Compound 2-2, 3-(3-chloro-5-methylphenyl)-N,7-dimethyl-6-(pyridin-3-yl)-N-[(2S)-pyrrolidin-2-ylmethyl]-3,4-dihydroquinazoline-4-carboxamide] | 100 to 1000 nM |
| COc1ccc(Cl)c(-c2cc3c(cc2C)N=CN(c2cc(C)cc(Cl)c2)C3C(=O)N(C)C[C@@H]2CCCN2)c1 (stereo partly drawn) [Compound 2-3, 6-(2-chloro-5-methoxyphenyl)-3-(3-chloro-5-methylphenyl)-N,7-dimethyl-N-[(2S)-pyrrolidin-2-ylmethyl]-3,4-dihydroquinazoline-4-carboxamide] | < 100 nM |
| COc1ccc(C)c(-c2cc3c(cc2C)N=CN(c2cc(C)cc(Cl)c2)C3C(=O)N(C)C[C@@H]2CCCN2)c1 (stereo partly drawn) [Compound 2-4, 3-(3-chloro-5-methylphenyl)-6-(5-methoxy-2-methylphenyl)-N,7-dimethyl-N-[(2S)-pyrrolidin-2-ylmethyl]-3,4-dihydroquinazoline-4-carboxamide] | < 100 nM |
| COc1ccc(F)c(-c2cc3c(cc2C)N=CN(c2cc(C)cc(Cl)c2)C3C(=O)N(C)C[C@@H]2CCCN2)c1 (stereo partly drawn) [Compound 2-5, 3-(3-chloro-5-methylphenyl)-6-(2-fluoro-5-methoxyphenyl)-N,7-dimethyl-N-[(2S)-pyrrolidin-2-ylmethyl]-3,4-dihydroquinazoline-4-carboxamide] | < 100 nM |
| Cc1cc(Cl)cc(N2C=Nc3cc(C)c(-c4cccc(NS(C)(=O)=O)c4)cc3C2C(=O)N(C)C[C@@H]2CCCN2)c1 (stereo partly drawn) [Compound 2-6, 3-(3-chloro-5-methylphenyl)-6-(3-methanesulfonamidophenyl)-N,7-dimethyl-N-[(2S)-pyrrolidin-2-ylmethyl]-3,4-dihydroquinazoline-4-carboxamide] | 100 to 1000 nM |
| Cc1cc(Cl)cc(N2C=Nc3cc(C)c(-c4cccc(F)c4C)cc3C2C(=O)N(C)C[C@@H]2CCCN2)c1 (stereo partly drawn) [Compound 2-7, 3-(3-chloro-5-methylphenyl)-6-(3-fluoro-2-methylphenyl)-N,7-dimethyl-N-[(2S)-pyrrolidin-2-ylmethyl]-3,4-dihydroquinazoline-4-carboxamide] | < 100 nM |
| Cc1cc(Cl)cc(N2C=Nc3cc(C)c(-c4ccc(F)cc4C)cc3C2C(=O)N(C)C[C@@H]2CCCN2)c1 (stereo partly drawn) [Compound 2-8, 3-(3-chloro-5-methylphenyl)-6-(4-fluoro-2-methylphenyl)-N,7-dimethyl-N-[(2S)-pyrrolidin-2-ylmethyl]-3,4-dihydroquinazoline-4-carboxamide] | < 100 nM |
| Cc1cc(Cl)cc(N2C=Nc3cc(C)c(-c4cc(F)cc(C(N)=O)c4)cc3C2C(=O)N(C)C[C@@H]2CCCN2)c1 (stereo partly drawn) [Compound 2-9, 6-(3-carbamoyl-5-fluorophenyl)-3-(3-chloro-5-methylphenyl)-N,7-dimethyl-N-[(2S)-pyrrolidin-2-ylmethyl]-3,4-dihydroquinazoline-4-carboxamide] | < 100 nM |
| Cc1cc(Cl)cc(N2C=Nc3cc(C)c(-c4cncc(O)c4)cc3C2C(=O)N(C)C[C@@H]2CCCN2)c1 (stereo partly drawn) [Compound 2-10, 3-(3-chloro-5-methylphenyl)-6-(5-hydroxypyridin-3-yl)-N,7-dimethyl-N-[(2S)-pyrrolidin-2-ylmethyl]-3,4-dihydroquinazoline-4-carboxamide] | < 100 nM |
| Cc1cc(Cl)cc(N2C=Nc3cc(C)c(-c4cccc(C(N)=O)n4)cc3C2C(=O)N(C)C[C@@H]2CCCN2)c1 (stereo partly drawn) [Compound 2-11, 6-(6-carbamoylpyridin-2-yl)-3-(3-chloro-5-methylphenyl)-N,7-dimethyl-N-[(2S)-pyrrolidin-2-ylmethyl]-3,4-dihydroquinazoline-4-carboxamide] | < 100 nM |
| Cc1cc(Cl)cc(N2C=Nc3cc(C)c(-c4c(C)cccc4F)cc3C2C(=O)N(C)C[C@@H]2CCCN2)c1 (stereo partly drawn) [Compound 2-12, 3-(3-chloro-5-methylphenyl)-6-(2-fluoro-6-methylphenyl)-N,7-dimethyl-N-[(2S)-pyrrolidin-2-ylmethyl]-3,4-dihydroquinazoline-4-carboxamide] | < 100 nM |
| Cc1cc(Cl)cc(N2C=Nc3cc(C)c(-c4cc(F)ccc4C)cc3C2C(=O)N(C)C[C@@H]2CCCN2)c1 (stereo partly drawn) [Compound 2-13, 3-(3-chloro-5-methylphenyl)-6-(5-fluoro-2-methylphenyl)-N,7-dimethyl-N-[(2S)-pyrrolidin-2-ylmethyl]-3,4-dihydroquinazoline-4-carboxamide] | < 100 nM |
| Cc1cc(Cl)cc(N2C=Nc3cc(C)c(-c4cc(C(N)=O)ccn4)cc3C2C(=O)N(C)C[C@@H]2CCCN2)c1 (stereo partly drawn) [Compound 2-14, 6-(4-carbamoylpyridin-2-yl)-3-(3-chloro-5-methylphenyl)-N,7-dimethyl-N-[(2S)-pyrrolidin-2-ylmethyl]-3,4-dihydroquinazoline-4-carboxamide] | 100 to 1000 nM |
| COc1cc(C)cc(-c2cc3c(cc2C)N=CN(c2cc(C)cc(Cl)c2)C3C(=O)N(C)C[C@@H]2CCCN2)c1 (stereo partly drawn) [Compound 2-15, 3-(3-chloro-5-methylphenyl)-6-(3-methoxy-5-methylphenyl)-N,7-dimethyl-N-[(2S)-pyrrolidin-2-ylmethyl]-3,4-dihydroquinazoline-4-carboxamide] | < 100 nM |
| COc1cc(-c2cc3c(cc2C)N=CN(c2cc(C)cc(Cl)c2)C3C(=O)N(C)C[C@@H]2CCCN2)ccc1C (stereo partly drawn) [Compound 2-16, 3-(3-chloro-5-methylphenyl)-6-(3-methoxy-4-methylphenyl)-N,7-dimethyl-N-[(2S)-pyrrolidin-2-ylmethyl]-3,4-dihydroquinazoline-4-carboxamide] | < 100 nM |
